The values that follow come from patent US5686454A, “Camphorcarbonyl” (Merck & Co., Inc., priority 1996, dated 1997).

In general, IC50 refers to the concentration that gives 50% inhibition. As a reminder, the inhibition is how much of the control response was suppressed.

One assay deals with T1, uterine OT receptors (Rattus norvegicus, UniProt P70536).
T1 construct: crude membrane preparation of uteri; from tissue; host or cells: uterus of DES-treated rats, crude membranes
T1 sequence (P70536 1-388): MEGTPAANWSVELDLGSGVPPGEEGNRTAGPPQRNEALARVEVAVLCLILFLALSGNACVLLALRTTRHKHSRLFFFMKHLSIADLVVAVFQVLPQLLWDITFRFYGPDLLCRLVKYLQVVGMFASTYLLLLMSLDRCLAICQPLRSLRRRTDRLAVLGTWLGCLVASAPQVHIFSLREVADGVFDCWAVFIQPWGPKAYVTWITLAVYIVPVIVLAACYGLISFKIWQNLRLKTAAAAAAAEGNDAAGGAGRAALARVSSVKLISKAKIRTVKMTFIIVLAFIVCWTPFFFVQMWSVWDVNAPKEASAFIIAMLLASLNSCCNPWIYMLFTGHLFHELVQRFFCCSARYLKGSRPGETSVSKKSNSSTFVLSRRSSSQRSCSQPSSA
In words: Radioligand binding: competition of [^3 H]oxytocin binding to rat uterine membranes. The settings on record: 1 nM [^3 H]OT, rat uterus membranes, 60 minutes, 22° C., pH 7.4; read-out: IC50. The text has this:
RADIOGLIGAND BINDING ASSAYS
The high affinity binding of [^3 H]
On to `Cc1ccccc1N1CCN(S(=O)(=O)C[C@]23CC[C@H](C[C@@H]2NC(=O)C(C)c2c[nH]cn2)C3(C)C)CC1` (stereo partly drawn) [Example 80, 1-((7,7-Dimethyl-2-endo-(2-(4-imidazolyl)propanoyl)-amino-bicyclo(2.2.1)heptan-1-yl)methanesulfonyl)-4-(2-methylphenyl)piperazine], for which the IC50 worked out at 12 nM. Turning to `Cc1ccccc1N1CCN(S(=O)(=O)C[C@]23CC[C@H](C[C@]2(O)C(C)CNC(=O)[C@@H]2CCCN2CCCC(=O)O)C3(C)C)CC1` (stereo partly drawn) [Example 42, 1-((7,7-Dimethyl-2-exo-hydroxy-2-endo-2-(1-(1-N-(3-carboxypropyl)prolyl)amino)propyl-bicyclo(2.2.1)heptan-1-yl)methanesulfonyl)-4-(2-methylphenyl) piperazine], the IC50 was 10 nM. `Cc1ccccc1N1CCN(S(=O)(=O)CC23CCC(CC2NC(=O)[C@@H](N)CCS(C)(=O)=O)C3(C)C)CC1` (stereo partly drawn) [Example 72, 1-((7,7-Dimethyl-2-endo-(2S-amino-4-(methylsulfonyl)-butyramido)bicyclo(2.2.1)heptan-1-yl)methanesulfonyl)-4-(2-methylphenyl)piperazine]: the IC50 turned out to be 1.2 nM. Same read-out and setting: as for `Cc1ccccc1N1CCN(S(=O)(=O)C[C@]23CC[C@H](C[C@]2(O)C(C)CNC(=O)Cc2c[nH]cn2)C3(C)C)CC1` (stereo partly drawn) [Example 43, 1-((7,7-Dimethyl-2-exo-hydroxy-2-endo-2-(1-(4(5)-imidazolylacetyl)amino)propyl-bicyclo(2.2.1)heptan-1-yl)methanesulfonyl)-4-(2-methylphenyl)piperazine], the figure is 8 nM; as for `Cc1ccccc1N1CCN(S(=O)(=O)CC23CCC(CC2O)C3(C)C)C(C)C1` (stereo not drawn) [Example 68, 1-((7,7-Dimethyl-2-exo-hydroxy-bicyclo(2.2.1)heptan-1-yl)methanesulfonyl)-4-(2-methylphenyl)-2-methyl-piperazine], 460 nM. For `Cc1ccccc1N1CCN(C(=O)C2C3CCC(C)(C2NC(=O)C(CCS(C)(=O)=O)NC(=O)OC(C)(C)C)C3(C)C)CC1` (stereo not drawn) [Example 9, 1-(2-methylphenyl)-4-[(4,7,7-trimethyl-3-exo-(4-methylsulfonyl-2-t-butoxycarbonylamino)butanoylaminobicyclo[2.2.1]hept-2-endo-yl)carbonyl]-piperazine], the IC50 amounted to 6.5 nM. For `Cc1ccccc1N1CCN(C(=O)C2C(=NO)C3(C)CCC2C3(C)C)CC1` (stereo not drawn) [Example 6, 1-(2-methylphenyl)-4-[(4,7,7-trimethyl-3-hydroxyimino-bicyclo[2.2.1]-hept-2-endo-yl)carbonyl]-piperazine], the IC50 worked out at 82 nM. As to `COC(=O)CCN1CCC(C(=O)NCC(C)C2(O)CC3CCC2(CS(=O)(=O)N2CCN(c4ccccc4C)CC2)C3(C)C)CC1` (stereo not drawn) [Example 91, 1-((7,7-Dimethyl-2-exo-hydroxy-2-endo-2-(1-(4-(1-methoxycarbonylethyl)-piperidinylcarbonyl)-amino)propylbicyclo(2.2.1)heptan-1-yl)methane-sulfonyl)-4-(2-methylphenyl)piperazine], the IC50 was 54 nM. Still for that read-out and setting: as for `Cc1ccccc1N1CCN(S(=O)(=O)CC23CCC(CC2N(C)C(=O)[C@H](CCS(C)(=O)=O)N(C)C)C3(C)C)CC1` (stereo partly drawn) [Example 78, 1-((7,7-Dimethyl-2-endo-methyl(2S-dimethylamino-4-(methylsulfonyl)butanoyl)amino-bicyclo(2.2.1)heptan-1-yl)methanesulfonyl)-4-(2-methylphenyl)-piperazine], the figure is 110 nM; as for `Cc1ccccc1N1CCN(S(=O)(=O)C[C@]23CC[C@H](C[C@]2(O)C(C)CN)C3(C)C)CC1` (some centres unmarked) [Example 39], 180 nM; as for `Cc1ccccc1N1CCN(C(=O)C2C3CCC(C)(C2NC(=O)C(O)CO)C3(C)C)CC1` (centres unmarked) [Example 18, 1-(2-methylphenyl)-4-[(4,7,7-trimethyl-3-(2,3-dihydroxy)propionylaminobicyclo[2.2.1]hept-2-yl)carbonyl]-piperazine], 120 nM. The same measure, in the same setting: the value for `Cc1ccccc1N1CCN(C(=O)C2C3CCC(C)(C2NC(=O)C(N)CCS(C)(=O)=O)C3(C)C)CC1` (stereo not drawn) [Example 12, 1-(2-methylphenyl)-4-[(4,7,7-trimethyl-3-endo-(4-methylsulfonyl-2-amino)butanoylaminobicyclo[2.2.1]hept-2-endo-yl)carbonyl]-piperazine] was 15.3 nM.

The assay is the same for the next values; noted with them: IC50, 1 nM [^3 H]OT, rat uterus membranes, 60 minutes, 22° C., pH 7.4.
With `Cc1ccccc1N1CCN(S(=O)(=O)C[C@]23CC[C@H](C[C@]2(O)C(C)CNC(=O)C2CN4CCC2CC4)C3(C)C)CC1` (stereo partly drawn) [Example 44, 1-((7,7-Dimethyl-2-exo-hydroxy-2-endo-2-(1-(quinuclidin-3-yl-carbonyl)amino)propyl-bicyclo(2.2.1)heptan-1-yl)methanesulfonyl)-4-(2-methylphenyl)piperazine], the IC50 came to 18 nM.

Still in this assay, the particulars now being: read-out: % inhibition at 100 nM.
Regarding `Cc1ccccc1N1CCN(S(=O)(=O)CC23CCC(CC2(O)C(C)CNC(=O)C2CCCN(CCC(=O)O)C2)C3(C)C)CC1` (centres unmarked) [Example 85], the inhibition at 0.1 µM was 66%.

For `COC(=O)C1CC(=O)N(CC(C)C2(O)CC3CCC2(CS(=O)(=O)N2CCN(c4ccccc4C)CC2)C3(C)C)C1` (stereo not drawn) [Example 62, 1-((7,7-dimethyl-2-exo-hydroxy-2-endo-2-(1-(3-methoxycarbonyl)-2-pyrrolidinon-1-yl)propylbicyclo-(2.2.1)heptan-1-yl)methanesulfonyl)-4-(2-methylphenyl)piperazine], the inhibition at 0.1 µM was determined as 37%. As to `Cc1ccccc1N1CCN(S(=O)(=O)CC23CCC(CC2(O)C(C)CNCc2ccncc2)C3(C)C)CC1` (stereo not drawn) [Example 63, 1-((7,7-Dimethyl-2-exo-hydroxy-2-endo-2-(1-(4-pyridinyl)methylamino)-propyl-bicyclo(2.2.1)heptan-1-yl)methanesulfonyl)-4-(2-methylphenyl)-piperazine], the inhibition at 0.1 µM is 35%.

The same assay, now with this note: read-out: % inhibition at 110 nM.
`Cc1ccccc1N1CCN(S(=O)(=O)CC23CCC(CC2(O)C(C)CNC(=O)C2CCCN(CC(=O)O)C2)C3(C)C)CC1` (stereo not drawn) [Example 87, 1-((7,7-Dimethyl-2-exo-hydroxy-2-endo-2-(1-(3-(1-carboxymethyl)piperidinylcarbonyl)amino)-propylbicyclo(2.2.1)heptan-1-yl)methanesulfonyl)-4-(2-methylphenyl)piperazine]: the inhibition at […] amounted to 66%.

The assay is the same for the next values; noted with them: read-out: % inhibition at 1000 nM.
Turning to `CCOC(=O)C(CC=C1CC2CCC1(CS(=O)(=O)N1CCN(c3ccccc3C)CC1)C2(C)C)(NC(C)=O)C(=O)OCC` (centres unmarked) [Example 64, 1-((7,7-Dimethyl-2-(3-acetamido-3,3'-di(ethoxycarbonyl))propylidine-bicyclo(2.2.1)heptan-1-yl)methanesulfonyl)-4-(2-methylphenyl)piperazine], the inhibition at 1 µM amounted to 78%. The same measure, in the same setting: as for `Cc1ccccc1N1CCN(S(=O)(=O)CC23CCC(CC2NC(=O)OCc2ccccc2)C3(C)C)CC1` (stereo not drawn) [Example 75, 1-((7,7-Dimethyl-2-endo-benzyloxycarbonylamino-bicyclo(2.2.1)heptan-1-yl)methanesulfonyl)-4-(2-methyl-phenyl)-piperazine], the figure is 35%. `Cc1ccccc1N1CCN(C(=O)C2(CC(=O)O)C(=O)C3(C)CCC2C3(C)C)CC1` (centres unmarked) [Example 4, 1-(2-methylphenyl)-4-[(4,7,7-trimethyl-3-oxo-2-carboxymethyl-bicyclo[2.2.1]hept-2-yl)carbonyl]-piperazine]: the inhibition at 1 µM is 53%.
